Results published in PMC9814340, “CDK8/19 inhibition plays an important role in pancreatic β-cell induction from human iPSCs” (Stem Cell Research & Therapy, 2023).
Entries after “also recorded” stand apart in the source; their conditions may differ. Like-named read-outs stand apart in the source and are kept apart here.

What was measured:
[1] = test system: Salmonella typhimurium TA100, TA1535, TA98, and TA1537, and Escherichia coli WP2uvrA; assay: Ames mutagenicity assay (bacterial reverse mutation test), five strains, absence of rat liver S9; details: for Ames Mutagenicity: result in words, absence of rat liver S9, 78.1-5000 μg/plate
Description: (§1) Salmonella typhimurium TA100, TA1535, TA98, and TA1537, and Escherichia coli WP2uvrA were used to detect either frameshift mutations (TA98 and TA1537) or base pair substitutions (TA100, TA1535, and WP2uvrA). These strains are widely used and recommended for use in ICH S2(R1) for the bacterial reversion assay.
(§2) In the current study, rat liver S9 fraction, […], was not included because the mutagenicity of compounds should be assessed when simulating cell cultures but not in vivo after metabolism by liver enzymes. Briefly, each tester strain was mixed with seven concentrations (78.1–5000 μg/plate) of each compound and preincubated for 20 min in test tubes. Two plates per dose for the tested compounds and positive control group, and four plates per dose for the negative control group were used. Dimethyl sulfoxide (FUJIFILM Wako) was selected as solvent for the tested compounds and used as negative control. […] Following preincubation, semisolid top agar was added to the tubes, and then, the mixtures were overlaid on minimal glucose agar plates. After the overlaid agar solidified, the plates were stored at 37 °C in an incubator for 48 h.
(§3) Cultures were examined for signs of compound precipitation and other abnormal conditions by eye. Subsequently, cytotoxicity (decreased background lawn) was assessed using a stereomicroscope. The number of revertant colonies on the plates was counted using an automatic colony analyzer (CA-11, System Science Co., Ltd., Tokyo, Japan) or manually when counting by the automatic colony analyzer was inappropriate, e.g., when precipitation was observed.

TNIK = TNIK (Homo sapiens, UniProt Q9UKE5); assay: biochemical
Experimental: (§4) Briefly, BODIPY-FL- or Cy5-FL-conjugated staurosporine derivative that binds to a highly conserved ATP-binding pocket in kinases was used as a fluorescent probe and tested compounds were applied at 0.1 and 1 μM in competitive binding assays for ~ 350 recombinant protein kinases. TR-FRET fluorescent signals from terbium and BODIPY/Cy5-FL were measured using an EnVision plate reader (PerkinElmer, Waltham, MA, USA), and pIC50 values were extrapolated from the inhibition rate.

TGFBR2 = TGFBR2 (Homo sapiens, UniProt P37173); assay: biochemical
Experimental: as §4

CDK19 = CDK19 (Homo sapiens, UniProt Q9BWU1); assay: biochemical
Experimental: as §4

CDK8 [2] = biological target: T1, CDK8 (Homo sapiens, UniProt P49336); assay: biochemical
Experimental: as §4

RIPK2 = RIPK2 (Homo sapiens, UniProt O43353); assay: biochemical
Experimental: as §4

[3] = test system: Salmonella typhimurium TA1537
Description: as §1, §2, §3

[4] = test system: β-cells (INS+NKX6.1+) differentiated from human iPSC line Ff-I14-s04; assay: β-cell induction in iPIC differentiation from hiPSCs (compound at stages 5-7), flow cytometry; format: cell-based; details: for proportion of β-cells (INS+NKX6.1+), representative dot plot: Fig. 3a
Experimental: For differentiation culture to generate iPICs, we used 2D monolayer to static aggregate culture based on our previous report and 3D stirred-floating aggregate culture. The details of the typical 3D floating culture were as follows.
PD-166866 (1 μM, Merck Millipore) was added from day 4 of stage 6.
Stage 7 medium was based on a previous report with our original modifications. […] To generate iPICs for implantation, cells were dissociated and re-sized in an Elplasia 6-well microwell plate (Corning Incorporated, Corning, NY, USA) or a gas-permeable microwell culture bag (Toyo Seikan Group Holdings, Ltd., Yokohama, Japan) and cultured in the stage 7 medium.
The differentiation efficiency of β-cells (INS^+NKX6.1^+) and endocrine cells (CHGA^+) was analyzed using immunostaining methods and flow cytometry on an LSRFortessa X20 instrument (BD Corporation, Franklin Lakes, NJ, USA), as described previously. The primary antibodies used are detailed in Additional file 1: Table S1. Secondary antibodies were conjugated to Alexa Fluor 488, 546, 568, and 647 of the appropriate species (Thermo Fisher Scientific or Jackson ImmunoResearch, West Grove, PA, USA).

ALK5 = biological target: T2, ALK5 (Homo sapiens, UniProt P36897); assay: TR-FRET-based competitive binding kinase profiling assay; details: Yes/No summary of Fig. 1d; method not given
T2 construct: Axcelead Drug Discovery Partners (ran the assay)
T2 sequence (P36897 34-503): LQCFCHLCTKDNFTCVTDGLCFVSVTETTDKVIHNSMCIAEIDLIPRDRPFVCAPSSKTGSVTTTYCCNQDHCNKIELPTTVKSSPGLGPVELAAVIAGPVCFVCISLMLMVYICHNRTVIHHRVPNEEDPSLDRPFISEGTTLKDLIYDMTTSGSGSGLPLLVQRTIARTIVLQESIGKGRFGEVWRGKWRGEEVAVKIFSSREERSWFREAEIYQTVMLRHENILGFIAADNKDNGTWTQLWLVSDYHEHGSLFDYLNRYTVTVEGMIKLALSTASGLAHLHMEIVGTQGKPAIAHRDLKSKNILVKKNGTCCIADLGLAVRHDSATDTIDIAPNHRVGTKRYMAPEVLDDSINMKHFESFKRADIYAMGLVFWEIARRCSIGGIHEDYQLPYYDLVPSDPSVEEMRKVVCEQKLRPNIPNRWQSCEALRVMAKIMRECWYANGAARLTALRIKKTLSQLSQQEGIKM

CDK8 [5] = biological target: T1, CDK8; parameters: Axcelead Drug Discovery Partners (ran the assay); method as in PMID 28392276; details: cited from earlier work

T1 sequence (P49336 whole entry, species assumed): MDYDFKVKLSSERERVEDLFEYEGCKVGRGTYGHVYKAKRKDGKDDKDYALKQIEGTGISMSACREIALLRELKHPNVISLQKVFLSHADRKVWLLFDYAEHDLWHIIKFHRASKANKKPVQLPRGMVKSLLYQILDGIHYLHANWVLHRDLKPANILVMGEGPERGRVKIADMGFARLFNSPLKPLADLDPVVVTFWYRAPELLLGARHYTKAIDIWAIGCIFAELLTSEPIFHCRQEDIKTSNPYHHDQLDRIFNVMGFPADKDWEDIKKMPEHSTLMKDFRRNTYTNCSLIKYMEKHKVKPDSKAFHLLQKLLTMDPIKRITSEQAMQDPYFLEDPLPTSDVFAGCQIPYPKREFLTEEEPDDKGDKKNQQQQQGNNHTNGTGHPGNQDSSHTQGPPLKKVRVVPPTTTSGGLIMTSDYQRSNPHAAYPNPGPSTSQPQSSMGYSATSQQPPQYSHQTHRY
T1 sequence (P24863 whole entry partner, species assumed): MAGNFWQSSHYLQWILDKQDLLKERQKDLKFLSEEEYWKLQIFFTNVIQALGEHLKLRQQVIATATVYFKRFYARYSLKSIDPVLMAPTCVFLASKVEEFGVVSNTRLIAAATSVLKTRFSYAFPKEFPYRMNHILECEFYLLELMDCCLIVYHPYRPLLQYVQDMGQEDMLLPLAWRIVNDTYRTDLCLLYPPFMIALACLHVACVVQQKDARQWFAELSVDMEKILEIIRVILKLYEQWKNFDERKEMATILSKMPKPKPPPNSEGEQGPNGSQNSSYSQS
Chain of CDK19 (Q9BWU1 whole entry, species assumed): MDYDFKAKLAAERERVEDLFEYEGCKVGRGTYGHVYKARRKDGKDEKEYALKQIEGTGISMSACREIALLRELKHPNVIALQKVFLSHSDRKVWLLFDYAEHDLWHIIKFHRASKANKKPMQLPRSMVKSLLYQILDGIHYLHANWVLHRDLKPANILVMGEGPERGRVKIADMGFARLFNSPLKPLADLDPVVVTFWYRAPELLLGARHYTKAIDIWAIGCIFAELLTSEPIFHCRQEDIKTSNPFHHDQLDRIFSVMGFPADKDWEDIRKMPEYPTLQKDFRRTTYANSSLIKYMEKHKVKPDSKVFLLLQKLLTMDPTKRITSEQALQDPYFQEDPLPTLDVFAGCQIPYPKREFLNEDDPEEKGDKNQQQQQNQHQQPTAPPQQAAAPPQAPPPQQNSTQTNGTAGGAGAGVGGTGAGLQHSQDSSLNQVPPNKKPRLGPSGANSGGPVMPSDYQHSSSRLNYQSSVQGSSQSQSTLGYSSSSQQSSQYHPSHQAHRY
Chain of CDK19 (P24863 whole entry partner, species assumed): as the sequence (P24863 whole entry partner, species assumed) above
Chain of TGFBR2 (P37173 23-567, species assumed): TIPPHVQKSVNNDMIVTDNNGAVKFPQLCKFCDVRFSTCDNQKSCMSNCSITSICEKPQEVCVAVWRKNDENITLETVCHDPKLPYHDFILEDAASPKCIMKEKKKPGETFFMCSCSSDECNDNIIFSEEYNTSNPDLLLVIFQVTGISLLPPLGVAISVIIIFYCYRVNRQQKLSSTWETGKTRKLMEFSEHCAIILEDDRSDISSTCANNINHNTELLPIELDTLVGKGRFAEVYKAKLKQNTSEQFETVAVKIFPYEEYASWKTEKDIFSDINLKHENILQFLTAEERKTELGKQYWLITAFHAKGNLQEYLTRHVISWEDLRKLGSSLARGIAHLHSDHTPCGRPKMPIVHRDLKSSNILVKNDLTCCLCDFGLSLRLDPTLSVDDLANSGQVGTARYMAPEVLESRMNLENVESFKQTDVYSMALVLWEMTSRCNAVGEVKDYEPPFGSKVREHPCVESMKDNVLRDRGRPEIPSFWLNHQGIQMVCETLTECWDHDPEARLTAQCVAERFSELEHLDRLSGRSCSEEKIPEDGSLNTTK
Chain of RIPK2 (O43353 whole entry, species assumed): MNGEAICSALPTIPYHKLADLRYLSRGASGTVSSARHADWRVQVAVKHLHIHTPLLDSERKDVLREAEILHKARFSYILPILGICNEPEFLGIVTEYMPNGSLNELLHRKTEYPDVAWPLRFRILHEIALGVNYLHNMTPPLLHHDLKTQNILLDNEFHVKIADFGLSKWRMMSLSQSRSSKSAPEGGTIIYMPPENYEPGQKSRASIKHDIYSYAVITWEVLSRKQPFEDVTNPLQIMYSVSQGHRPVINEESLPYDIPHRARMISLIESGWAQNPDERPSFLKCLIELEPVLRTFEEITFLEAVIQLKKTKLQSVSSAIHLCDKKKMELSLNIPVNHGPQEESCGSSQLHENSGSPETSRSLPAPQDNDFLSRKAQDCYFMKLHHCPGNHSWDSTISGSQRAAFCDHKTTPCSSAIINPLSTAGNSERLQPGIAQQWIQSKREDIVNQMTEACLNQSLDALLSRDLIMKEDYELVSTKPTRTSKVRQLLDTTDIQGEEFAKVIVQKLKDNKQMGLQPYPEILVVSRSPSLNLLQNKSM
Chain of TNIK (Q9UKE5 whole entry, species assumed): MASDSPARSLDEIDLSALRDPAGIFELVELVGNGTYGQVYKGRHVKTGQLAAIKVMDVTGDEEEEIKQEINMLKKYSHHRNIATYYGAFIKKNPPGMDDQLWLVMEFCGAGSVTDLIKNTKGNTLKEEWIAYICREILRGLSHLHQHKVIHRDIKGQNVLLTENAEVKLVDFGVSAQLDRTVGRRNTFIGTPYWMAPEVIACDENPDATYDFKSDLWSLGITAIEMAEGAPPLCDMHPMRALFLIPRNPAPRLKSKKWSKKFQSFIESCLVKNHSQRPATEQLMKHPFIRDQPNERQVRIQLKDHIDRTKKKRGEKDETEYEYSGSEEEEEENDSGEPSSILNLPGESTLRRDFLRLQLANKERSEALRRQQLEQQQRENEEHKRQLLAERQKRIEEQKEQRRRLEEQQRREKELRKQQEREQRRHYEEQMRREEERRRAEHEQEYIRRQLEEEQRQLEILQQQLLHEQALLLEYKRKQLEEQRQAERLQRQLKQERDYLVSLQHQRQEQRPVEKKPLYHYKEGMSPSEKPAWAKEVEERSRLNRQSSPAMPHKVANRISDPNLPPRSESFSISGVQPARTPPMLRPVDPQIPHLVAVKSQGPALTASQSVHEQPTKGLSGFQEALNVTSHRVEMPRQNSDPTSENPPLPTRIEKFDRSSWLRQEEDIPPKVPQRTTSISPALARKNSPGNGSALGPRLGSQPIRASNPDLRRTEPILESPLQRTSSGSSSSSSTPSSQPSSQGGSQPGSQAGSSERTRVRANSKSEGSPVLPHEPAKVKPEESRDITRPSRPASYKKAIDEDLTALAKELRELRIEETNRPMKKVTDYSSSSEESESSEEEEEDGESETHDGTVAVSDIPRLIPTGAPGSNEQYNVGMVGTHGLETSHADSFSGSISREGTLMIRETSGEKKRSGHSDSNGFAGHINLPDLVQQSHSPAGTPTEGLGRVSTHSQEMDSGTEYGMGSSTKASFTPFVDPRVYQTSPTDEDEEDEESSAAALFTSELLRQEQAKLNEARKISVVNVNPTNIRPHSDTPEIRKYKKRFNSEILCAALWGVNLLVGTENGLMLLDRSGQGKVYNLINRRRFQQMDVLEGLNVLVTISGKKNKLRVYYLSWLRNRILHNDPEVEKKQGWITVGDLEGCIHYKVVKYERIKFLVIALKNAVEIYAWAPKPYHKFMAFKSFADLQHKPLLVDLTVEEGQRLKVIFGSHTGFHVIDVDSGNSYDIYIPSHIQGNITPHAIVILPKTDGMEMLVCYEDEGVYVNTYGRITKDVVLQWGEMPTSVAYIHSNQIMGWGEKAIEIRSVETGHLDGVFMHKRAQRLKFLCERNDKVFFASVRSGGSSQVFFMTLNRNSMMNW

## NC(=O)c1ccc(-c2nc(-c3ccc4c(c3)OCO4)c(-c3ccccn3)[nH]2)cc1 [SB431542]
[1]
  Ames Mutagenicity: did not have mutagenic potential; also recorded: negative

## Cc1cccc(-c2n[nH]cc2-c2ccc3ncccc3n2)n1 [ALK5iII]
[1]; Fig. 1b flowchart, absence of S9, positive = mean revertant colonies at least twofold the negative control in any strain
  Ames mutagenicity test: (+)
[1]
  Ames Mutagenicity: Positive
TNIK
  IC50: 661 nM
TGFBR2
  IC50: 107 nM
CDK19
  IC50: 66.1 nM
CDK8 [2]
  IC50: 158 nM
RIPK2
  IC50: 151 nM
[3]
  Ames response in the TA1537 strain: positive response
[3]; Salmonella typhimurium
  TA1537, -S9 # colony: 8
[4]; 10 μM ALK5iII at stages 5-7
  proportion of β-cells (INS+NKX6.1+), representative dot plot: 35.0%
ALK5
  ALK5 inhibition: Yes

## c1cncc(-c2n[nH]cc2-c2cnc3ccccc3n2)c1 [TR04411299]
[1]
  Ames Mutagenicity: positive result
[3]; 78.1 μg/plate, DMSO control 8 (ALK5 inhibitor II) / 9 (TR04411299)
  TA1537, -S9 # colony: 5
[3]; 156 μg/plate, DMSO control 8 / 9
  TA1537, -S9 # colony: 9
[3]; 313 μg/plate, DMSO control 8 / 9
  TA1537, -S9 # colony: 21
[3]; 625 μg/plate, DMSO control 8 / 9
  TA1537, -S9 # colony: 45
[3]; 1250 μg/plate, DMSO control 8 / 9
  TA1537, -S9 # colony: 82
[3]; 2500 μg/plate, DMSO control 8 / 9
  TA1537, -S9 # colony: 128
[3]; 5000 μg/plate, DMSO control 8 / 9
  TA1537, -S9 # colony: 194
ALK5
  ALK5 inhibition: No and did not inhibit ALK5

## CN(C)C(=O)Cn1cc(-c2ccc(-c3cncc4ccccc34)cc2)cn1 [BI-1347]
[4]; 3 nM, instead of ALK5iII, stages 5-7
  proportion of β-cells (INS+NKX6.1+), representative dot plot: 39.8%

## COc1ccc2nc3cc(Cl)ccc3c(NCCCNCCCl)c2c1.Cl.Cl [ICR, [6-Chloro-9-(3-[2-chloroethylamino]propylamino)-2-methoxyacridine] dihydrochloride]
[3]; positive control, 1.0 μg
  TA1537, -S9 # colony: 1804

## CN1CCN(C(=O)c2ccc3cc(CCNc4ncnc5ccc(C#N)cc45)ccc3c2)CC1 [Senexin B]
[4]; 0.1 μM, instead of ALK5iII, stages 5-7
  proportion of β-cells (INS+NKX6.1+), representative dot plot: 39.7%

## Cc1cccc(-c2[nH]c(C(C)(C)C)nc2-c2ccc3nccnc3c2)n1 [SB525334]
[1]
  Ames Mutagenicity: Negative; also recorded: did not have mutagenic potential

## O=C(/C=C/c1cnccc1-c1cnn(C2CC2)c1)Nc1ccc(CN2CCOCC2)cc1 [TR06096159]
CDK8 [5]
  IC50: 6.4 nM

## Cn1cc(-c2ccnc(O)c2/C=C/C(=O)Nc2ccc(CN3CCOCC3)cc2)cn1 [TR05978156]
CDK8 [5]
  IC50: > 10000 nM
[4]; result in words, compound replaces ALK5iII at stages 5-7
  β-cell induction / differentiation efficiency: did not induce β-cells efficiently

## Cl.Nc1c2ccccc2nc2ccccc12.O [9-AA, 9-aminoacridine hydrochloride monohydrate]
[3]; positive control, 80 μg
  TA1537, -S9 # colony: 169
